Where two headings read alike, the source gives them in different places.
How the values were obtained:
hTRPM8 = tested on: hTRPM8; set-up: method as in PMID 31850745; conditions: cited from earlier work
mouse α4β2 nAChRs = target: T1, mouse α4β2 nAChRs (Mus musculus, UniProt O70174+Q9ERK7); assay: Calcium 6 Ca2+ flux assay, neuro-2a cells transiently transfected with α4β2 nAChRs; assay type: cell-based
T1 construct: expressed in transfected cells; host or cells: mouse neuroblastoma-2a (neuro-2a) cells, transient transfection with Lipofectamine 3000
T1 sequence (O70174 31-629): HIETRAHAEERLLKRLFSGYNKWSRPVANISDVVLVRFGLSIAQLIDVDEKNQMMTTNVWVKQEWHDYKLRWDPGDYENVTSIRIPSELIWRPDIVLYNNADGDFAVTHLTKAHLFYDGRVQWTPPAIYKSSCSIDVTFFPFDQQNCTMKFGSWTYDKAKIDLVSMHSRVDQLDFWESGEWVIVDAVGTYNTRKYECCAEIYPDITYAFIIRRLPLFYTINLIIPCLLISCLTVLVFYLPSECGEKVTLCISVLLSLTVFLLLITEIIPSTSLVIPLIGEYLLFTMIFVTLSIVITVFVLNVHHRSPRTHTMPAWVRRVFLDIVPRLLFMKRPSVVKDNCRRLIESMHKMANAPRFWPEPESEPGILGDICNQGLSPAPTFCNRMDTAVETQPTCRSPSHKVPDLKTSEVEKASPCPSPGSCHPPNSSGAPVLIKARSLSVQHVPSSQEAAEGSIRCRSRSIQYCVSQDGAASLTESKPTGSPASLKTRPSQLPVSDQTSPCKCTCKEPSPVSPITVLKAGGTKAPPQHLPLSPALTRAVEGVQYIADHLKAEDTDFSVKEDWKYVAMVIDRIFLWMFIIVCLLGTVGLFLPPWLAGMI
T1 sequence (Q9ERK7 26-501): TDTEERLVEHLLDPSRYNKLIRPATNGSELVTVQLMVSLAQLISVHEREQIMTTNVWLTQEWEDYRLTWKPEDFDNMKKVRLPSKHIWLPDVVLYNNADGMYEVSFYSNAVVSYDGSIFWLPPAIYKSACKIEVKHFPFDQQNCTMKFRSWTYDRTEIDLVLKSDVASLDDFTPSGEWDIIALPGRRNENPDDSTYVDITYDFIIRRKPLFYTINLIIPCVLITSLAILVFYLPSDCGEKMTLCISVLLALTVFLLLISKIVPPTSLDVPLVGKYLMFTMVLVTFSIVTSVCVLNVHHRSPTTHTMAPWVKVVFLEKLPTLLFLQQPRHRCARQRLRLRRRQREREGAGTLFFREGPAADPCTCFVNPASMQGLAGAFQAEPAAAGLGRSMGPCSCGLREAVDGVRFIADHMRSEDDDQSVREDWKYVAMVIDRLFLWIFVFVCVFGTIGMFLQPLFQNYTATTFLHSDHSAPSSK

MDR1 = assay: MDR1-MDCK permeability; conditions: dog; for efflux ratio at 120 min, 5 μM: MDCK-MDR1, pH 7.4; for recovery at 120 min, 5 μM: MDCK-MDR1, pH 7.4, Recovery (%), pH 7.4, 120 minutes
Protocol: (§1) MDR1-MDCK Permeability. Pharmacokinetic experiments with compounds were performed by Absorption Systems (Exton, PA, USA). MDR1-MDCK cell monolayers were grown to confluence on collagen-coated, microporous membranes in 12-well assay plates. The permeability assay buffer was Hanks’ balanced salt solution containing 10 mM HEPES and 15 mM glucose at a pH of 7.4. The buffer in the receiver chamber also contained 1% bovine serum albumin. The dosing solution concentration was 5 […]
(§2) μM of test article in the assay buffer. Cell monolayers were dosed on the apical side (A-to-B) or basolateral side (B-to-A) and incubated at 37°C with 5% CO2 in a humidified incubator. Samples were […]
(§3) chambers at 0 and 120 minutes; samples were taken from the receiver chambers at 120 minutes. Each determination was performed in duplicate. The flux of lucifer yellow was also measured post-experimentally for each monolayer to ensure no damage was inflicted to the cell monolayers during the flux period. All samples were assayed by LC-MS/MS using electrospray ionization. Analytical conditions were carried out as previously described (REF:Journigan ACS CN 2020). The apparent permeability (Papp) and percent recovery were calculated as follows:
(§4) Papp = (dCr /dt) × Vr/(A × C0) (1)
(§5) Percent Recovery = 100 × ((Vr × Crfinal) + (Vd × Cd final))/(Vd × C0) (2) […]
(§6) dCr /dt is the slope of the cumulative receiver concentration versus time in M sµ -1;
(§7) Vr is the volume of the receiver compartment in cm3;
(§8) Vd is the volume of the donor compartment in cm3;
(§9) A is the area of the insert (1.13 cm2 for 12-well);
(§10) C0 is the measured concentration of the donor chamber at time 0 in μM;
(§11) Crfinal is the cumulative receiver concentration in μM at the end of the incubation period; Cdfinal is the concentration of the donor in μM at the end of the incubation period.
(§12) Efflux ratio (ER) is defined as Papp (B-to-A) / Papp (A-to-B).
(§13) Brain Penetration Potential Classification:
(§14) Papp (A-to-B) ≥ 3.0 and ER < 3.0: High
(§15) Papp (A-to-B) ≥ 3.0 and 10 > ER ≥ 3.0: Moderate

[1] = Stability in mouse liver microsomes; assay type: in vitro ADME
Protocol: Mouse Liver Microsome Assays. These assays were carried out as detailed previously.

[2] = tested on: MDR1-MDCK cell monolayers; assay: in vitro
Protocol: as §1, §2, §3, §4, §5, §6, §7, §8, §9, §10, §11, §12, §13, §14, §15

C57BL/6J mice = assay: Conditioned place preference (CPP) assay; assay type: in vivo, mouse
Protocol: CPP assays were completed in a three-chamber spatial place preference chamber (Harvard Apparatus, PanLab, dimensions: 47.5 × 27.5 × 47.5 cm) using male and female C57BL/6J mice. Time in chambers was recorded by motion tracking software (SMART 3.0). […] On day 1, a pre-test was completed wherein mice were placed in the central chamber and allowed free access to the apparatus for 20 min. Mice that spent >65% of the test in one chamber were excluded and the remaining mice were counterbalanced. For counterbalancing, mice were separated into groups of approximately equal bias, similar to previously published CPP methods. No exclusions were necessary for these studies. Following counterbalancing, no initial biases were noted. The mice received their designated drug injections on days 2, 4, 6, and 8, and received saline injections on days 3, 5, 7, and 9. Each conditioning period lasted 20 min. On day 10, a post-test was completed whereby the mice were again placed in the central chamber and allowed free access for 20 min. In total, 5 male and 5 female C57BL/6J mice, 3–5 months old, were used in the CPP assays for each treatment group. Time spent in the saline-paired chamber was subtracted from time spent in the drug-paired chamber to score the pre-test and post-test. CPP score (or change from baseline) was determined by subtracting the pre-test score from the post-test score. A significant positive CPP score is indicative of reward-related behavior, while a significant reduction is indicative of aversion-related behavior.
No sex differences were observed and data for males and females were combined (see Results for specifics). Data are expressed as a change in baseline preference, which was analyzed using a one-way ANOVA with a post hoc Tukey.

[3] = reported; ref 1 (supplement); cited from earlier work
[4] = in the presence of 100 µM nicotine

O=C(NC1CCCCC1)c1ccc(-c2ccccc2)cc1 [VBJ032]
IC50 (hTRPM8): 49000 ± 1000 nM | concentration at which maximum increase occurs (mouse α4β2 nAChRs; [4]): 50 µM

C[C@H]1O[C@@H](O[C@H]2[C@@H](O)C[C@H](O[C@H]3[C@@H](O)C[C@H](O[C@H]4CC[C@@]5(C)[C@H](CC[C@@H]6[C@@H]5C[C@@H](O)[C@]5(C)[C@@H](C7=CC(=O)OC7)CC[C@]65O)C4)O[C@@H]3C)O[C@@H]2C)C[C@H](O)[C@@H]1O [digoxin, reference compound]
efflux ratio at 120 min, 5 μM (MDR1): 299 | Papp at 120 min, 5 μM (MDR1; MDCK-MDR1, pH 7.4, Papp average, A-to-B, 5 μM): 0.0612 ×10⁻⁶ cm/s | Papp at 120 min, 5 μM (MDR1; MDCK-MDR1, pH 7.4, Papp average, B-to-A, 5 μM): 18.3 ×10⁻⁶ cm/s

O=C(NC1CCCCCCC1)c1ccc(-c2ccccc2)cc1 [VBJ051]
IC50 (hTRPM8): 62 ± 1 nM | concentration at which maximum increase occurs (mouse α4β2 nAChRs; [4]): 50 µM

O=C(NC1CCc2ccccc2C1)c1ccc(-c2ccccc2)cc1 (stereo not drawn) [VBJ109]
IC50 (hTRPM8): 52 ± 1 nM | concentration at which maximum increase occurs (mouse α4β2 nAChRs; [4]): 50 µM

O=C(NC1CCC2CCCCC2C1)c1ccc(-c2ccccc2)cc1 (stereo not drawn) [VBJ104]
half-life ([1]; mouse, microsomes): 11.3 min | microsomal CLint ([1]; mouse, microsomes): 122 µL/min/mg | remaining at 0 h ([1]; mouse, microsomes): 100% | remaining at 10 min ([1]; mouse, microsomes): 40.8% | remaining at 20 min ([1]; mouse, microsomes): 30.7% | remaining at 0.5 h ([1]; mouse, microsomes): 22.5% | remaining at 1 h ([1]; mouse, microsomes): 10.3% | IC50 (hTRPM8): 6 ± 1 nM | Brain Penetration Classification ([2]; MDCK-MDR1): Low | MDR1-MDCK permeability efflux ratio (in words) ([2]; MDCK-MDR1): low | Papp average ([2]; dog, MDCK-MDR1, 120 min, 5 μM, pH 7.4): 1.22 10-6 cm/s | efflux ratio at 120 min, 5 μM (MDR1): 0.685 | Papp at 120 min, 5 μM (MDR1; MDCK-MDR1, pH 7.4, Papp R2): 1.67 ×10⁻⁶ cm/s | Papp at 120 min, 5 μM (MDR1; MDCK-MDR1, pH 7.4, Papp average): 1.79 ×10⁻⁶ cm/s | recovery at 120 min, 5 μM (MDR1; A-to-B, 5 μM): 70.8% | recovery at 120 min, 5 μM (MDR1; B-to-A, 5 μM): 86.9% | Emax (mouse α4β2 nAChRs; N2a, read-out: Max Efficacy (Normalized to 100 µM Nicotine), in the presence of 100 µM nicotine, mean ± SEM): 361% | concentration at which maximum increase occurs (mouse α4β2 nAChRs; [4]): 100 µM | Max Efficacy (Normalized to 100 µM Nicotine) (mouse α4β2 nAChRs; in the presence of 100 µM nicotine, mean ± SEM): 360.7 ± 37.7% | reward-related behavior (in words) (C57BL/6J mice; 0.5 mg/kg nicotine plus 0.5 mg/kg VBJ104, compared to nicotine, p < 0.05): significant increase in reward-related behavior | reward-related behavior (in words) (C57BL/6J mice; 0.5 mg/kg nicotine plus 1.0 mg/kg VBJ104, p < 0.0001 vs saline, not vs nicotine alone): significant CPP compared to saline | CPP score (C57BL/6J mice; female mice, 0.5 mg/kg nicotine plus 0.5 mg/kg VBJ104, intraperitoneal): 269.8 | CPP score (C57BL/6J mice; male mice, 0.5 mg/kg nicotine plus 0.5 mg/kg VBJ104, intraperitoneal): 261.5

CN1CCC[C@H]1c1cccnc1 [nicotine, Nicotine ditartrate dihydrate, reference compound]
T1/2 of nicotine in mice [3]: 6 to 7 min | place preference (in words) (C57BL/6J mice; 0.5 mg/kg nicotine, males and females combined, post hoc Tukey): significant place preference | CPP score (C57BL/6J mice; female mice, 0.5 mg/kg nicotine, intraperitoneal): 127.5 | CPP score (C57BL/6J mice; male mice, 0.5 mg/kg nicotine, intraperitoneal): 131.2

O=C(NC(C1CCCCC1)C1CCCCC1)c1ccc(-c2ccccc2)cc1 [VBJ098]
activity as an agonist, PM, or antagonist (mouse α4β2 nAChRs; α4β2 nAChRs): no activity

C[C@]12CC[C@H]3[C@@H](CCC4=CC(=O)CC[C@@]43C)[C@@H]1CC[C@@H]2O [testosterone, reference compound]
half-life ([1]; mouse liver microsomes): 4.58 min | microsomal CLint ([1]; mouse liver microsomes, read-out: CLint): 302 µL/min/mg
